SMILES strings stand for the structures.

13 molecules from US7223759B2, “Antibacterial 3,5-diaminopiperidine-substituted aromatic and heteroaromatic compounds” (Anadys Pharmaceuticals, Inc., priority 2003, dated 2007) can be followed below.

The test system of the first assay is Escherichia coli (ATCC25922) or Staphylococcus aureus (ATCC25923). Description: Antibacterial MIC, microdilution method in Mueller-Hinton medium. The format is cell-based. To be noted: Escherichia coli, 18 h, MIC in E. coli or S. aureus; two-fold serial dilutions 64 to 0.5 μg/ml in duplicate; 18 hours of incubation at 35° C.; read-out: Potency (MIC). In outline: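 Two-fold serial dilutions from 64 to 0.5 μg/ml, in duplicate, by broth microdilution in Mueller-Hinton medium (NCCLS M7-A5). MIC taken as the lowest concentration preventing visible growth after 18 h at 35° C.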
In the case of `N[C@@H]1C[C@H](N)CN(c2nc(Nc3ccccc3N3CCOCC3)nc(N3C[C@H](N)C[C@H](N)C3)n2)C1` [N-(2-morpholin-44-yl-phenyl)-4,6-Bis-((3R,5S)-3,5-diamino-piperidin-1-yl)-[1,3,5]triazine-2-amine], the MIC is greater than 64 µg/mL.

Regarding `O=C(Nc1ccccc1)c1ccccc1Nc1nc(N2CCCCC2)nc(N2CCCCC2)n1` [N-(2-phenylcarbamoyl-phenyl)-44,6-Bis-((3R,5S)-3,5-diamino-piperidin-1-yl)-[1,3,5]triazine-2-amine], the MIC was greater than 64 µg/mL.

For the molecule `Cl.c1ccc(Nc2ccccc2Nc2nc(C3CCCCC3)nc(N3CCCCC3)n2)cc1` [N-(2-pohenylamino-phenyl)-4,6-Bis-((3R,5S)-3,5-diamino-piperidin-1-yl)-[1,3,5]triazine-2-amine], the MIC was greater than 64 µg/mL.

On to `Cl.N[C@@H]1C[C@H](N)CN(c2nc(Nc3ccccc3-n3cccc3)nc(N3C[C@H](N)C[C@H](N)C3)n2)C1` [N-(2-pyrrol-1-yl-phenyl)-4,6-Bis-((3R,5S)-3,5-diamino-piperidin-1-yl)-[1,3,5]triazine-2-amine], for which the MIC was less than 64 µg/mL.

Take `Cl.N[C@@H]1C[C@H](N)CN(c2nc(Nc3ccccc3S(N)(=O)=O)nc(N3C[C@H](N)C[C@H](N)C3)n2)C1` [N-(2-sulfamoyl-phenyl)-4,6-Bis-((3R,5S)-3,5-diamino-piperidin-1-yl)-[1,3,5]triazine-2-amine]: the MIC is greater than 64 µg/mL.

As to `N[C@@H]1C[C@H](N)CN(c2nc(Nc3ccccc3S(N)(=O)=O)nc(N3C[C@H](N)C[C@H](N)C3)n2)C1` [N-(2-sulfamoyl-phenyl)-4,6-Bis-((3R,5S)-3,5-diamino-piperidin-1-yl)-[1,3,5]triazine-2-amine], the MIC is greater than 64 µg/mL.

`Cl.N[C@@H]1C[C@H](N)CN(c2nc(Nc3ccc(Cl)c(Cl)c3)nc(N3C[C@H](N)C[C@H](N)C3)n2)C1` [N-(3,4-dichloro-phenyl)-4,6-Bis-((3R,5S)-3,5-diamino-piperidin-1-yl)-[1,3,5]triazine-2-amine]: the MIC is less than 64 µg/mL.

Consider `Cc1ccc(Nc2nc(N3C[C@H](N)C[C@H](N)C3)nc(N3C[C@H](N)C[C@H](N)C3)n2)cc1C.Cl` [N-(3,4-dimethyl-phenyl)-4,6-Bis-((3R,5S)-3,5-ddiamino-piperidin-1-yl)-[1,3,5]triazine-2-amine], for which the MIC is less than 64 µg/mL.

Take `Cl.N[C@@H]1C[C@H](N)CN(c2nc(Nc3cccc(Br)c3)nc(N3C[C@H](N)C[C@H](N)C3)n2)C1` [N-(3-bromo-phenyl)-4,6-Bis-((3R,5S)-3,5-diamino-piperidin-1-yl)-[1,3,5]triazine-2-amine]: the MIC is less than 64 µg/mL.

The same assay, now with this note: Escherichia coli, 18 h, read-out: Potency (MIC).
For `COc1cc2c(cc1Nc1nc(N3C[C@H](N)C[C@H](N)C3)nc(N3C[C@H](N)C[C@H](N)C3)n1)oc1ccccc12` [N-(2-methoxy-dibenzofuran-3-yl)-4,6-Bis-((3R,5S)-3,5-diamino-piperidin-1-yl)-[1,3,5]triazine-2-amine], the MIC was less than 64 µg/mL.

Consider `N[C@@H]1C[C@H](N)CN(c2nc(Nc3ccccc3N3CCCCC3)nc(N3C[C@H](N)C[C@H](N)C3)n2)C1` [N-(2-piperidin-1-yl-phenyl)-4,6-Bis-((3R,5S)-3,5-diamino-piperidin-1-yl)-[1,3,5]triazine-2-amine], for which the MIC was greater than 64 µg/mL.

Regarding `Cc1cc(C)cc(Nc2nc(N3C[C@H](N)C[C@H](N)C3)nc(N3C[C@H](N)C[C@H](N)C3)n2)c1` [N-(3,5-dimethyl-phenyl)-4,6-Bis-((3R,5S)-3,5-diamino-piperidin-1-yl)-[1,3,5]triazine-2-amine], the MIC is less than 64 µg/mL.

Turning to `N[C@@H]1C[C@H](N)CN(c2nc(Nc3cccc(I)c3)nc(N3C[C@H](N)C[C@H](N)C3)n2)C1` [N-(3-Iodo-phenyl)-4,6-Bis-((3R,5S)-3,5-diamino-piperidin-1-yl)-[1,3,5]triazine-2-amine], the minimal inhibitory concentration (MIC) was less than 64 µg/mL.
